Results on 10 compounds are retold here after EP4740948A1 (Dong Wha Pharm. Co., Ltd., priority 2023, dated 2025).

One assay relates to SW-13 cells. The assay can be described thus: Cancer cell proliferation inhibition (Cell Counting Kit-8), adrenal cancer cell line. It counts as cell-based. As to conditions: Homo sapiens, SW13, 264 h, 1000 nM, cultured seven to 11 days; read-out: % inhibition rate SW-13. In short, it runs like this:
(§1)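 Single-concentration test: 1000 nM compound, 7-11 day culture after seeding 100 to 1,000 cells per well in 10% FBS medium. Percent inhibition derived from Cell Counting Kit-8 signal relative to untreated control.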

The test system of another assay is NCI-H1299 cells. The assay can be described thus: Cancer cell proliferation inhibition (Cell Counting Kit-8), lung cancer cell line. It is filed as cell-based. To be noted: Homo sapiens, NCI-H1299, 264 h, 1000 nM, cultured seven to 11 days; read-out: % inhibition rate NCI-H129 9. In short, it runs like this:
as §1

For a further assay, the target named is EZH1 (Homo sapiens, UniProt Q92800). The assay can be described thus: AlphaLISA enzyme activity inhibition, EZH1. It is filed as biochemical. To be noted: for inhibition at 0.005 µM: 5nM test substance; for inhibition at 0.01 µM: 10nM test substance. The essentials:
(§2)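 Enzyme inhibition rate was calculated relative to DMSO from AlphaLISA signal, with acceptor beads added after a 2 h methylation reaction and donor beads 1 h later. Each enzyme, EZH1 or EZH2, was pre-mixed with compound (final 5 nM or 10 nM) in Tris buffer pH 8.0 before histone H3 peptide and SAM initiated the reaction.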

For the next assay, the target named is EZH2 (Homo sapiens, UniProt Q15910). The assay can be described thus: AlphaLISA enzyme activity inhibition, EZH2. It is filed as biochemical. As to conditions: for inhibition at 0.005 µM: 5nM test substance; for inhibition at 0.01 µM: 10nM test substance. In short, it runs like this: as §2
For another assay, the system named is Lovo cells. The assay can be described thus: Cancer cell proliferation inhibition (Cell Counting Kit-8), colorectal cancer cell line. It is filed as cell-based. To be noted: 1000 nM, cultured seven to 11 days; for inhibition at 1 µM: Homo sapiens, LoVo, 264 h, read-out: % inhibition rate LoVo. In short, it runs like this: as §1
The next assay relates to MIA-PaCa-2 cells. The assay can be described thus: Cancer cell proliferation inhibition (Cell Counting Kit-8), pancreatic cancer cell line. It counts as cell-based. To be noted: Homo sapiens, MIA PaCa-2, 264 h, 1000 nM, cultured seven to 11 days; read-out: % inhibition rate MIA-Paca2. The essentials:
as §1

The subject of the next assay is MKN-45 cells. The assay can be described thus: Cancer cell proliferation inhibition (Cell Counting Kit-8), gastric cancer cell line. It is filed as cell-based. As to conditions: Homo sapiens, MKN-45, 264 h, 1000 nM, cultured seven to 11 days; read-out: % inhibition rate MKN -45. The essentials:
(§3)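 Single 1000 nM dose of test substance, applied to cells seeded at 100–1,000 per well in 10% FBS medium, then culture for seven to 11 days. CCK-8 read-out; inhibition rate expressed as percent relative to untreated control.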

A further assay has as its system G401 cells. The assay can be described thus: Cancer cell proliferation inhibition (Cell Counting Kit-8), rhabdoid tumor cell line. It is filed as cell-based. As to conditions: 1000 nM, cultured seven to 11 days; for % inhibition rate G401: 1 µM; for inhibition at 1 µM: Homo sapiens, G-401, 264 h, read-out: % inhibition rate G401. In short, it runs like this:
as §3

Where only a bound is given, the exact number is not on record here.

EZH2, sequence (Q15910 whole entry, species assumed): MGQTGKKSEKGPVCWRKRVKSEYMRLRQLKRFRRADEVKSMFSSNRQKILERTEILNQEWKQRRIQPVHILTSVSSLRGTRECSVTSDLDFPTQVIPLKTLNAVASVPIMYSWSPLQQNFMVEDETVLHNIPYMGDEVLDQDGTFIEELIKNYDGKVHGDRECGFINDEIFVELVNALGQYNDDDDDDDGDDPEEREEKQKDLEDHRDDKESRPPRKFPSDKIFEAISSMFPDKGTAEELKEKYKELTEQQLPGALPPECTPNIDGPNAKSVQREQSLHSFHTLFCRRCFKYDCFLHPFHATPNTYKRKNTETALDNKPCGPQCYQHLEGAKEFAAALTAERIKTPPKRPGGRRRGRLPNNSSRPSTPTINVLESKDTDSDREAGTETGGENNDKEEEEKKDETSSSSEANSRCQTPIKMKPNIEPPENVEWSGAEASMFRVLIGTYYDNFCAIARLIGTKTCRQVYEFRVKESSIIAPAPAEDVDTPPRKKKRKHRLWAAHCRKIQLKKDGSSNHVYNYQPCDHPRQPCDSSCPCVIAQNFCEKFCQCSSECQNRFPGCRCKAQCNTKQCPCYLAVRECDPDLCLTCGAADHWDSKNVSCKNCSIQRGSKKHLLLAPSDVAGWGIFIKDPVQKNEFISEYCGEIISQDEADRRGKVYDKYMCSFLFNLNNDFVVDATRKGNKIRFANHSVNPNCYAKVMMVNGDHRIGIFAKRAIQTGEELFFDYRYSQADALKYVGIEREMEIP
EZH2, sequence (O75530 whole entry partner, species assumed): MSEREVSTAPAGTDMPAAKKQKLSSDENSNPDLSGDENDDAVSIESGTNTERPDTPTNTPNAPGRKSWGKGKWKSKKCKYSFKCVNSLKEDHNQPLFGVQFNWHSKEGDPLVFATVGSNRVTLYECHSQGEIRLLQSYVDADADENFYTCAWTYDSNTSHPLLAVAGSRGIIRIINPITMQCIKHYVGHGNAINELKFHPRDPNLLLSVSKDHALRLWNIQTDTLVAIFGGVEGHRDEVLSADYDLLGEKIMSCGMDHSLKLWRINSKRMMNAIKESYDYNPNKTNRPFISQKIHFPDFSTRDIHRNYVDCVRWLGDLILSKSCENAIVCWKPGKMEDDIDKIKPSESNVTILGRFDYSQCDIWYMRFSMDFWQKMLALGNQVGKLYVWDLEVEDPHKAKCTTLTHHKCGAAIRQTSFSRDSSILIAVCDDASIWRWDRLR
EZH2, sequence (Q15022 whole entry partner, species assumed): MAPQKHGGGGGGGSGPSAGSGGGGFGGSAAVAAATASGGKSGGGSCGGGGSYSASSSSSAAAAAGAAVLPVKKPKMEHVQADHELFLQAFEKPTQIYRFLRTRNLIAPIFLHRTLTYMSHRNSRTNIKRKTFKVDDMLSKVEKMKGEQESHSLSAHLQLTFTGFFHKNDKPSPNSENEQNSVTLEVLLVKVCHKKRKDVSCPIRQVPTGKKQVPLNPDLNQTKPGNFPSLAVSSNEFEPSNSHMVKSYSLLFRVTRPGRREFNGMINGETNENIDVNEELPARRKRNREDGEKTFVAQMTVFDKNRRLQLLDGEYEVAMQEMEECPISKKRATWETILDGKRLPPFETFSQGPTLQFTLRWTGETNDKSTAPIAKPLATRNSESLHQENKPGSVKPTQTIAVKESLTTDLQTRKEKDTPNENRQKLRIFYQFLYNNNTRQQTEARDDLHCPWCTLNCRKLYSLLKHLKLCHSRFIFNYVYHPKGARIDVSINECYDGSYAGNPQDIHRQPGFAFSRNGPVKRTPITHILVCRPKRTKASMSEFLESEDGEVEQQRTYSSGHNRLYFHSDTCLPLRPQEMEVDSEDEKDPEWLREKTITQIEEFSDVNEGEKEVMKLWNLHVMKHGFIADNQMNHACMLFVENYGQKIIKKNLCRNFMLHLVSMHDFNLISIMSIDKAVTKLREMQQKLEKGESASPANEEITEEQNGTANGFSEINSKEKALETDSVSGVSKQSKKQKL
EZH1, sequence (Q92800 whole entry, species assumed): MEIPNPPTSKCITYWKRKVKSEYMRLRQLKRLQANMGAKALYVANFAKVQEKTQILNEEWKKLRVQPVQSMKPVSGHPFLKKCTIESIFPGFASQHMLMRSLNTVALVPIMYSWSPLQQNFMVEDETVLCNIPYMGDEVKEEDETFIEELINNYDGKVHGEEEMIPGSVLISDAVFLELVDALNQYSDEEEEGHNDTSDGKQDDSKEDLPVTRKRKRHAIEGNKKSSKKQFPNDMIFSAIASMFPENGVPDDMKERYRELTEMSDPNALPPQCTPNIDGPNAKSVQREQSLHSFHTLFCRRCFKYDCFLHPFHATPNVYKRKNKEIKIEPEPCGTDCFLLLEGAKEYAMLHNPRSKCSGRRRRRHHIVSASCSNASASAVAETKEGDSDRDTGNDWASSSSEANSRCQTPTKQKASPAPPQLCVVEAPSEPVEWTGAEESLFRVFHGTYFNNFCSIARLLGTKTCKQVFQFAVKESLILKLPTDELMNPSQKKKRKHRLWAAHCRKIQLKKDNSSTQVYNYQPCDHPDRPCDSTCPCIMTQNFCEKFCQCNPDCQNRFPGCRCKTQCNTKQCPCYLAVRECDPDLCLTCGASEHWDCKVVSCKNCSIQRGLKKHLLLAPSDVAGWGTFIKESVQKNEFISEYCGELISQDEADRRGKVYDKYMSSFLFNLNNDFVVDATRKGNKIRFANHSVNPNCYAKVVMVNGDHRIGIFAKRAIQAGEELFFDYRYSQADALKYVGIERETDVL
EZH1, sequence (O75530 whole entry partner, species assumed): as the sequence (O75530 whole entry partner, species assumed) above
EZH1, sequence (Q15022 whole entry partner, species assumed): as the sequence (Q15022 whole entry partner, species assumed) above

Turning to `CSc1cc(C)[nH]c(=O)c1CNC(=O)c1cc(-c2ccc(N3C[C@@H](C)O[C@@H](C)C3)nc2)c2c(c1C)OC(C)(C1CCN(CCc3ccccc3)CC1)O2` (single isomer, unassigned) [Compound 55], the inhibition at 1 µM with SW-13 cells is 30 to 70%; in the assay on NCI-H1299 cells it was 30 to 70%; in the assay on Lovo cells, ≥ 70%; in the assay on MIA-PaCa-2 cells, ≤ 30%; with MKN-45 cells, 30 to 70%. The results for the inhibition at 0.005 µM against EZH1 and against EZH2 were 31.6% and 58.2%, respectively. The inhibition at 0.01 µM on EZH1 came out at 52.2%; against EZH2, 93.3%. In the assay on G401 cells, the “% inhibition rate G401” value is “+++ (+++: ≥70%)”.

Regarding `CSc1cc(C)[nH]c(=O)c1CNC(=O)c1cc(-c2cnc(N3CCOCC3)nc2)c2c(c1C)OC(C)(C1CCN(CC(F)(F)F)CC1)O2` (single isomer, unassigned) [Compound 69, 2,4-dimethyl-N-((6-methyl-4-(methylthio)-2-oxo-1,2-dihydropyridin-3-yl)methyl)-7-(2-morpholinopyrimidine-5-yl)-2-(1-(2,2,2-trifluoro)piperidin-4-yl)benzo [d][1,3]dioxole-5-carboxamide], the inhibition at 1 µM in the assay on SW-13 cells was 30 to 70%; with NCI-H1299 cells, ≤ 30%; in the assay with Lovo cells, ≥ 70%; in the assay with MIA-PaCa-2 cells, ≤ 30%; in the assay on MKN-45 cells, 30 to 70%. The figures for the inhibition at 0.005 µM against EZH1 and against EZH2 were 71.9% and 98.2%, respectively. The figures for the inhibition at 0.01 µM against EZH1 and on EZH2 were 87.9% and 99.6%, respectively. For the same compound, in the assay with G401 cells, the “% inhibition rate G401” value is recorded as “+++ (+++: ≥70%)”.

Regarding `COc1ccc(F)cc1-c1cc(C(=O)NCc2c(SC)cc(C)[nH]c2=O)c(C)c2c1OC(C)(C1CCC(N(C)C)CC1)O2` (stereo not shown) [Compound 43, 2-(4-(dimethylamino)cyclohexyl)-7-(5-fluoro-2-methoxyphenyl)-2,4-dimethyl-N-((6-methyl-4-(methylthio)-2-oxo-1,2-dihydropyridin-3-yl)methyl)benzo[d][1,3]dioxole-5-carboxamide], the inhibition at 1 µM in the assay on SW-13 cells is ≤ 30%; with NCI-H1299 cells it was 30 to 70%; in the assay with Lovo cells, ≥ 70%; in the assay on MIA-PaCa-2 cells, ≤ 30%; in the assay with MKN-45 cells, 30 to 70%; with G401 cells, ≥ 70%. The inhibition at 0.005 µM against EZH1 was found to be 65.6%; on EZH2, 94.6%.

With `COC(CN1CCC(C2(C)Oc3c(-c4ccc(N5C[C@@H](C)O[C@@H](C)C5)nc4)cc(C(=O)NCc4c(SC)cc(C)[nH]c4=O)c(C)c3O2)CC1)OC` (stereo partly drawn) [Compound 41, 2-(1-(2,2-dimethoxyethyl)piperidin-4-yl)-7-(6-((2S,6R)-2,6-dimethylmorpholino)pyridin-3-yl)-2,4-dimethyl-N-((6-methyl-4-(methylthio)-2-oxo-1,2-dihydropyridin-3-yl)methyl)benzo[d][1,3]dioxole-5-carboxamide], the inhibition at 1 µM with SW-13 cells is ≤ 30%; in the assay with NCI-H1299 cells it was ≤ 30%; in the assay with Lovo cells it was ≥ 70%; in the assay on MIA-PaCa-2 cells it was ≤ 30%; with MKN-45 cells it was ≤ 30%; in the assay on G401 cells it was ≥ 70%. Further, the inhibition at 0.005 µM on EZH1 was 69.1%; at EZH2 it was 96.8%.

On to `CSc1cc(C)[nH]c(=O)c1CNC(=O)c1cc(-c2ccc(N3C[C@@H](C)O[C@@H](C)C3)nc2)c2c(c1C)OC(C)(C1CCN(CC(F)(F)F)CC1)O2` (stereo partly drawn) [Compound 33, 7-(6-((2S,6R)-2,6-dimethylmorpholino)pyridin-3-yl)-2,4-dimethyl-N-((6-methyl-4-(methylthio)-2-oxo-1,2-dihydropyridin-3-yl)methyl)-2-(1-(2,2,2-trifluoroethyl)piperidin-4-yl)benzo[d][1,3]dioxole-5-carboxamide], for which the inhibition at 1 µM in the assay with SW-13 cells was 30 to 70%; with NCI-H1299 cells, ≤ 30%; with Lovo cells, ≥ 70%; in the assay on MIA-PaCa-2 cells it was ≤ 30%; in the assay with MKN-45 cells it was 30 to 70%; in the assay with G401 cells it was ≥ 70%. In addition, the inhibition at 0.005 µM came to 37.6% on EZH1 and 59.1% at EZH2.

Take `CSc1cc(C)[nH]c(=O)c1CNC(=O)c1cc(-c2ccc(N3C[C@@H](C)O[C@@H](C)C3)nc2)c2c(c1C)OC(C)(C1CCN(CC(F)(F)F)CC1)O2` (single isomer, unassigned) [Compound 44]: the inhibition at 1 µM in the assay on SW-13 cells is 30 to 70%; with NCI-H1299 cells it was 30 to 70%; with MIA-PaCa-2 cells it was ≤ 30%; with MKN-45 cells, 30 to 70%. The inhibition at 0.005 µM on EZH1 stood at 46.8%; against EZH2 it was 96.1%. Also, the inhibition at 0.01 µM was 78.2% at EZH1 and 99.6% against EZH2. Besides, the “% inhibition rate LoVo” value with Lovo cells (1 µM) is on record as “+++ (+++: ≥70%)”. Besides, the “% inhibition rate G401” value in the assay with G401 cells is reported as “+++ (+++: ≥70%)”.

As to `CSc1cc(C)[nH]c(=O)c1CNC(=O)c1cc(-c2ccc(N3CCC(F)(F)CC3)nc2)c2c(c1C)OC(C)([C@H]1CC[C@H](N(C)C)CC1)O2` (relative stereo) [Compound 3, 7-(6-(4,4-difluoropiperidin-1-yl)pyridin-3-yl)-2-(trans-4-(dimethylamino)cyclohexyl)-2,4-dimethyl-N-((6-methyl-4-(methylthio)-2-oxo-1,2-dihydropyridin-3-yl)methyl)benzo[d][1,3]dioxole-5-carboxamide], the inhibition at 1 µM with SW-13 cells is 30 to 70%; in the assay on NCI-H1299 cells, 30 to 70%; in the assay with Lovo cells, 30 to 70%; in the assay with MIA-PaCa-2 cells it was ≤ 30%; in the assay on MKN-45 cells it was ≤ 30%; with G401 cells it was 30 to 70%. Further, the values for the inhibition at 0.005 µM against EZH1 and against EZH2 were 73.5% and 66.5%, respectively.

Regarding `CSc1cc(C)[nH]c(=O)c1CNC(=O)c1cc(-c2ccc3c(ccn3C)c2)c2c(c1C)OC(C)([C@H]1CC[C@H](N(C)C)CC1)O2` (relative stereo) [Compound 7, 2-(trans-4-(dimethylamino)cyclohexyl)-2,4-dimethyl-7-(1-methyl-1H-indol-5-yl)-N-((6-methyl-4-(methylthio)-2-oxo-1,2-dihydropyridin-3-yl)methyl)benzo[d][1,3]dioxole-5-carboxamide], the inhibition at 1 µM is 30 to 70% in the assay with SW-13 cells; ≤ 30% in the assay with NCI-H1299 cells; 30 to 70% in the assay on Lovo cells; ≤ 30% in the assay on MIA-PaCa-2 cells; 30 to 70% in the assay with MKN-45 cells; 30 to 70% in the assay on G401 cells. In addition, the inhibition at 0.005 µM was found to be 81.4% against EZH1 and 96% on EZH2.

Consider `COc1ccc(-c2cc(C(=O)NCc3c(SC)cc(C)[nH]c3=O)c(C)c3c2OC(C)(C2CCN(CC(F)(F)F)CC2)O3)cn1` (stereo not shown) [Compound 36, 7-(6-methoxypyridin-3-yl)-2,4-dimethyl-N-((6-methyl-4-(methylthio)-2-oxo-1,2-dihydropyridin-3-yl)methyl)-2-(1-(2,2,2-trifluoroethyl)piperidin-4-yl)benzo[d][1,3]dioxole-5-carboxamide], for which the inhibition at 1 µM in the assay with SW-13 cells was ≤ 30%; with NCI-H1299 cells, ≤ 30%; with Lovo cells, ≥ 70%; with MIA-PaCa-2 cells it was ≤ 30%; in the assay on MKN-45 cells, ≤ 30%; in the assay on G401 cells, ≥ 70%. Also, the inhibition at 0.005 µM against EZH1 was 57.4%; against EZH2, 83.1%.

Take `CSc1cc(C)[nH]c(=O)c1CNC(=O)c1cc(-c2ccc(N3C[C@@H](C)O[C@@H](C)C3)nc2)c2c(c1C)OC(C)([C@H]1CC[C@H](N3CC(O)C3)CC1)O2` (stereo partly drawn) [Compound 101, 7-(6-((2S,6R)-2,6-dimethylmorpholino)pyridin-3-yl)-2-(trans-4-(3-hydroxyazetidin-1-yl)cyclohexyl)-2,4-dimethyl-N-((6-methyl-4-(methylthio)-2-oxo-1,2-dihydropyridin-3-yl)methyl)benzo[d][1,3]dioxole-5-carboxamide]: the inhibition at 1 µM is 30 to 70% in the assay with SW-13 cells; ≤ 30% in the assay with NCI-H1299 cells; 30 to 70% with Lovo cells; ≤ 30% with MIA-PaCa-2 cells; ≤ 30% in the assay with MKN-45 cells; ≥ 70% in the assay with G401 cells. Also, the results for the inhibition at 0.005 µM at EZH1 and on EZH2 were 38.8% and 98.7%, respectively. In addition, the inhibition at 0.01 µM on EZH1 is 78.1%; at EZH2 it was 100%.
